This series is described as follows: recombinant barcode read abundance after kanamycin selection (control-corrected) (log10(CPM+1)); higher = more efficient recombination; sequences stand for … in AGTGCAGAGAAAATCGGCCAGTTTTCTCTGCCTGCAGTCCGCATGCCGT…AGATTTATGCAGCGGACTGCCTTTCTCCCAAAGTGATAAACCGGACAGTATCATGGACCGGTTTTCCCGGTAATCCGTATTTGCAAGGTTGGTTTCACT; site = the 11-nt target. As for the experimental part:
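Pooled E. coli target-specificity screen for the IS621 bridge recombinase. Each library plasmid pairs an 11-nt target (CT core) with a bridge RNA whose target-binding loop (9-nt LTG + 4-nt RTG) is reprogrammed; the rest of the 177-nt WT IS621 bridge RNA scaffold is fixed. The plasmid is co-electroporated with a WT donor plasmid; recombinase is induced with 0.1 mM IPTG and recombinants are selected on kanamycin. Recombinant barcodes are sequenced, converted to CPM, averaged over two biological replicates and corrected by the unselected control CPM. Molecule = full bridge RNA written as DNA: LTG = specificity nt 1-9, RTG = reverse complement of specificity nt 8-11, in the WT scaffold.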
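Further: IS621 recombinase and bridge RNA in Escherichia coli cells.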

Turning to “ACCTTGCCTTGGGTTCTAACCTGTTGCTA (site ACCTTGCCTTA)”, the “recombinant barcode read abundance (log10)” value came out at 0.478.
The value for “ACCTTGCCTTGGGTTCTAACCTGTTGCTA (site TGGAGAGCTCT)” was 0.0461; that for “ACGAACGCTTGGGTTCTAACCTGTTGCCT (site ACGAACGCTAG)” was 1.64; that for “ACGAACGCTTGGGTTCTAACCTGTTGCCT (site ACGACCGCTAG)” was 0.344.
Regarding “ACGAACGCTTGGGTTCTAACCTGTTGCCT (site ACGAGCGCTAG)”, the “recombinant barcode read abundance (log10)” value worked out at 0.085.
The value for “ACGAACGCTTGGGTTCTAACCTGTTGCCT (site ACGATCGCTAG)” was 0.14.
For “ACGAAGCCTTGGGTTCTAACCTGTTGCCT (site ACGAAGCCTAG)”, the “recombinant barcode read abundance (log10)” value was 1.35.
The value for “ACGAAGCCTTGGGTTCTAACCTGTTGCCT (site GCGACGCCTAG)” was 0.19; that for “ACGACTCCTTGGGTTCTAACCTGTTGCCT (site ACGACTACTAG)” was 0.467; that for “ACGACTCCTTGGGTTCTAACCTGTTGCCT (site ACGACTCCTAG)” was 0.618.
Regarding “ACGACTCCTTGGGTTCTAACCTGTTGCCT (site ACGACTGCTAG)”, the “recombinant barcode read abundance (log10)” value was 0.117.
The value for “ACGACTCCTTGGGTTCTAACCTGTTGCCT (site ACGACTTCTAG)” was 0.0781; that for “ACGAGTCCTTGGGTTCTAACCTGTTGCCT (site ACGAGTCCTAC)” was 0.112.
“ACGAGTCCTTGGGTTCTAACCTGTTGCCT (site ACGAGTCCTAG)”: the “recombinant barcode read abundance (log10)” value worked out at 1.36.
As to “ACGCACTCTTGGGTTCTAACCTGTTGCCT (site ACGCAATCTAG)”, the “recombinant barcode read abundance (log10)” value came out at 0.02.
The value for “ACGCACTCTTGGGTTCTAACCTGTTGCCT (site ACGCACTCTAG)” was 0.131; that for “ACGCACTCTTGGGTTCTAACCTGTTGCCT (site ACGCAGTCTAG)” was 0.109; that for “ACGCACTCTTGGGTTCTAACCTGTTGCCT (site ACGCATTCTAG)” was 0.394.
As for “ACGCATACTTGGGTTCTAACCTGTTGCCT (site ACACATACTAG)”, the “recombinant barcode read abundance (log10)” value was found to be 0.196.
The value for “ACGCATACTTGGGTTCTAACCTGTTGCCT (site ACGCATACTAG)” was 0.0647.
As to “ACGCATCCTTGGGTTCTAACCTGTTGCCT (site AAGCATCCTAG)”, the “recombinant barcode read abundance (log10)” value amounted to 0.0107.
The value for “ACGCATCCTTGGGTTCTAACCTGTTGCCT (site ACGCATCCTAG)” was 0.0284.
Turning to “ACGCATCCTTGGGTTCTAACCTGTTGCCT (site AGGCATCCTAG)”, the “recombinant barcode read abundance (log10)” value is 0.0797.
The value for “ACGCATCCTTGGGTTCTAACCTGTTGCCT (site ATGCATCCTAG)” was 0.11; that for “ACGCCCTCTTGGGTTCTAACCTGTTGCCT (site ACGCCCTCTAG)” was 0.0283; that for “ACGCCCTCTTGGGTTCTAACCTGTTGCCT (site GCGCCCTCTAG)” was 0.302.
Regarding “ACGCCTCCTTGGGTTCTAACCTGTTGCCA (site ACCCCTCCTTG)”, the “recombinant barcode read abundance (log10)” value amounted to 0.0961.
The value for “ACGCCTCCTTGGGTTCTAACCTGTTGCCA (site ACGCCTCCTTG)” was 0.371; that for “ACGCGAGCTTGGGTTCTAACCTGTTGCAG (site ACGCGAGCTCA)” was 0.188; that for “ACGCGAGCTTGGGTTCTAACCTGTTGCAG (site ACGCGAGCTCC)” was 0.318.
The value for “ACGCGAGCTTGGGTTCTAACCTGTTGCAG (site ACGCGAGCTCG)” was 0.192.
As for “ACGCGAGCTTGGGTTCTAACCTGTTGCAG (site ACGCGAGCTCT)”, the “recombinant barcode read abundance (log10)” value worked out at 0.142.
“ACGCGAGCTTGGGTTCTAACCTGTTGCGG (site ACGCGAGCTCA)”: the “recombinant barcode read abundance (log10)” value was determined as 0.066.
The value for “ACGCGAGCTTGGGTTCTAACCTGTTGCGG (site ACGCGAGCTCC)” was 0.954; that for “ACGCGAGCTTGGGTTCTAACCTGTTGCGG (site ACGCGAGCTCG)” was 0.316; that for “ACGCGAGCTTGGGTTCTAACCTGTTGCGG (site ACGCGAGCTCT)” was 0.423.
For the sequence “ACGCGGACTTGGGTTCTAACCTGTTGCCT (site ACGCCGACTAG)”, the “recombinant barcode read abundance (log10)” value was determined as 0.
Take “ACGCGGACTTGGGTTCTAACCTGTTGCCT (site ACGCGGACTAG)”: the “recombinant barcode read abundance (log10)” value worked out at 1.21.
The value for “ACGCGTTCTTGGGTTCTAACCTGTTGCAT (site ACGCGTTCTAT)” was 0.0272.
As to “ACGCGTTCTTGGGTTCTAACCTGTTGCAT (site CTAGACCCTCC)”, the “recombinant barcode read abundance (log10)” value was 0.271.
The value for “ACGGATCCTTGGGTTCTAACCTGTTGCAT (site ACGGATCCTAT)” was 2.51.
The value for “ACGGATCCTTGGGTTCTAACCTGTTGCAT (site GTCCTATCTTG)” was 0.0315; that for “ACGGCCTCTTGGGTTCTAACCTGTTGCTT (site ACGGCATCTAG)” was 0.276.
The value for “ACGGCCTCTTGGGTTCTAACCTGTTGCTT (site ACGGCCTCTAA)” was 2.63; that for “ACGGCGCCTTGGGTTCTAACCTGTTGCCT (site AAGGCGCCTAG)” was 0.0538; that for “ACGGCGCCTTGGGTTCTAACCTGTTGCCT (site ACGGCGCCTAG)” was 1.12.
Turning to “ACGGCGCCTTGGGTTCTAACCTGTTGCCT (site AGGGCGCCTAG)”, the “recombinant barcode read abundance (log10)” value came out at 0.101.
Consider “ACGGCGCCTTGGGTTCTAACCTGTTGCCT (site ATGGCGCCTAG)”, for which the “recombinant barcode read abundance (log10)” value was 0.182.
For “ACGGGCTCTTGGGTTCTAACCTGTTGCTC (site ACGGGCTCTGA)”, the “recombinant barcode read abundance (log10)” value was determined as 1.53.
“ACGGGCTCTTGGGTTCTAACCTGTTGCTC (site CGACTTACTAT)”: the “recombinant barcode read abundance (log10)” value is 0.164.
For “ACGGGGTCTTGGGTTCTAACCTGTTGCCT (site ACGGGGTCTAG)”, the “recombinant barcode read abundance (log10)” value was determined as 2.64.
The value for “ACGGGGTCTTGGGTTCTAACCTGTTGCCT (site CCGGGGTCTAG)” was 0.637; that for “ACGGGGTCTTGGGTTCTAACCTGTTGCCT (site GCGGGGTCTAG)” was 0.123; that for “ACGGGGTCTTGGGTTCTAACCTGTTGCCT (site TCGGGGTCTAG)” was 0.416.
For “ACGGGTACTTGGGTTCTAACCTGTTGCCT (site ACGGGTACTAG)”, the “recombinant barcode read abundance (log10)” value turned out to be 1.51.
The value for “ACGGGTACTTGGGTTCTAACCTGTTGCCT (site ACTGGTACTAG)” was 0.165; that for “ACGTAACCTTGGGTTCTAACCTGTTGCCT (site ACGTAACCTAG)” was 0.0547.
Turning to “ACGTAACCTTGGGTTCTAACCTGTTGCCT (site GTAACTACTGA)”, the “recombinant barcode read abundance (log10)” value was found to be 0.083.
The value for “ACGTATGCTTGGGTTCTAACCTGTTGCAT (site ACGTATGCTAT)” was 0.556.

The values above are taken from the supplement of paper PMC11208160.
